Assay results as given in patent publication US20220117929A1, “METHOD FOR PREVENTING OR TREATING HIGH-GRADE SEROUS CARCINOMA” (Buddhist Tzu Chi Medical Foundation, priority 2020, published 2022).
Values after ≈ are worked out from the molar mass of the structure shown. Like-named read-outs stand apart in the source and are kept apart here.

Tests used:
[1] = system: ALDH^+ kuramochi xenograft; test: Subcutaneous xenograft tumor growth and histology in NOD-SCID mice; type: in vivo
Procedure: To investigate tumor growth in vivo, the subcutaneous xenograft model is used widely in the research and allows easy detection of tumor growth and size. Herein, human ovarian cancer xenografts were used to investigate the tumor-inhibiting effect of BP in mice. The animal experiment procedures were approved by the Animal Research and Care Committee of the Buddhist Tzu Chi General Hospital (106-48). All procedures were performed in compliance with the National Institutes Health Guide for the Care and Use of Laboratory Animals. Non-obese, diabetic-severe combined immune deficiency mice (NOD-SCID) (strain NOD.CB17-Prkdcscid/JTcu) purchased from Tzu Chi University were used for these experiments.
ALDH^+ kuramochi cells (1×10^6) were injected subcutaneously into the backs of 4 to 5-week-old female mice. After tumors had grown to a volume of 50 mm^3, mice were separated into two groups (control and treatment groups; n=6 in each group). Controls were treated with vehicle alone (10% dimethyl sulfoxide (DMSO), 20% ethanol in PBS), and the experimental group was treated with different doses of BP (100 or 200 mg/kg) for 5 days. Tumor dimensions (length and width) were measured with calipers, and the tumor volume was determined using the following formula: volume=½ (length×width^2). […] The morphology and cell density were observed and recorded.

[2] = system: ALDH^+ kuramochi cells; test: TUNEL apoptosis assay in cultured cells; type: cell-based, human; details: BP 200 μg/ml for 48 hours vs no BP, p<0.01
Procedure: (§1) The level of apoptosis was compared between ALDH^+ kuramochi cells with and without BP treatment using the terminal deoxynucleotidyl transferase dUTP nick end labeling (TUNEL) assay. TUNEL assay was carried out to evaluate cell apoptosis using a TUNEL Assay Kit (Roche, Ind., USA) according to the manufacturer's instructions. Specifically, ALDH^+ kuramochi cells were seeded with 1×10^5 cells in each well of 12-well culture plates. Cultured cells were allowed to attach for 24 hours, and then treated with 200 μg/ml of BP for 48 hours. Adherent tumor cells were fixed in 4% paraformaldehyde. TUNEL probes were used to detect breaks in DNA strands, followed by incubation in a permeabilization solution for 2 min on ice. Cells were washed twice in phosphate buffered saline (PBS) and the TUNEL reaction mixture was added, followed by incubation at 37° C. for 60 min in a humidified atmosphere in the dark. Samples were washed in PBS twice and observed under a fluorescence microscope.

[3] = system: ALDH^+ kuramochi cells; test: Matrigel-coated Boyden chamber invasion assay; type: cell-based, human; details: 24 hours, vs untreated cells
Procedure: For assessment of cell invasion, the invasion assays were carried out in Matrigel-coated Boyden chambers (filter pore size, 8 μM) in 24-well plates (BD). In the top wells, culture medium without serum was seeded with 5×10^4 cells. The bottom wells were added with medium containing 10% FBS and BP (0, 100, or 200 μg/ml). Treatments were added to both upper and lower chambers as indicated. After 24 hours, the free cells were removed gently with a cotton swab. The invading cells were fixed with 4% formaldehyde and Giemsa stained. The slides were air-dried and photographed, and the cells were counted.

[4] = system: ALDH^+ kuramochi xenograft; test: TUNEL assay of xenograft tumor tissue; type: in vivo, mice; details: BP 200 mg/kg, p<0.001
Procedure: as §1
With BP treatment (200 mg/kg), the tumor volumes were smaller than those of control mice treated with the vehicle starting from day 11 to day 26 (p<0.001), as shown in FIG. 7A. […] TUNEL assay was also carried out to evaluate cell viability in the xenograft tumors, using the reagents and procedures as described above but with tumor tissue fixed in formalin and embedded in paraffin and sectioned with a 3 m of thickness. […]

[5] = system: ALDH^+ kuramochi cells; test: XTT cell viability assay, ALDH+ kuramochi cells (cancer stem cells); type: cell-based; details: Homo sapiens, 48 h, BP 0-400 μg/ml
Procedure: To evaluate and characterize the kuramochi cells, the expression of the cancer stem cell (CSC) marker, ALDH, was assessed using flow cytometry. Specifically, fluorescence-activated cell sorting (FACS) was used to isolate ALDH^+ cells from the kuramochi cell line. Then, the Aldefluor assay kit (Stem Cell Technologies, Cambridge, Mass., USA) was used to determine the ALDH activity. The activated Aldefluor reagent was used to trypsinized and incubated with cells for 50 min at 37° C. Cells were incubated with the inhibitor, N,N-diethylaminobenzaldehyde (DEAB), as control cells to identify for ALDH^+ and ALDH^− cell populations. […]
(§2) The half-maximal inhibitory concentration (IC50) of BP is determined in ALDH^+ and ordinary kuramochi cells. IC50 is determined by assessing the cell viability under different concentration of BP. For example, cell viability was determined by XTT assay (Biological Industries Ltd., Kibbutz Beit Haemek, Israel) following the instruction provided by the manufacturer. […] After 2-5 h of incubation at 37° C., plates were analyzed by spectrophotometry to determine the optical density of the solutions at a wavelength of 450 nm (reference wavelength, 650 nm) to determine viable cell number. […] The equation is expressed as follows: Y=d+(a−d)/(1+(X/c)^B), where Y is the response, and X is the concentration. […]

[6] = system: ALDH^+ kuramochi cells; test: XTT viability, BP combined with cisplatin or paclitaxel; type: cell-based, human; details: 72 hours
Procedure: To determine whether BP affects the toxicity of these chemotherapeutic agents, BP was added to cisplatin and paclitaxel treatment of ovarian cancer cells in vitro. ALDH^+ kuramochi cells (2500 ALDH^+ cells/well) in a 96-well plate were treated with BP (25 μg/ml) in combination with cisplatin (0, 5, or 10 μM) or with paclitaxel (0, 10 or 50 nM). Each experiment was conducted in triplicate. Plates were incubated at 37° C. with 5% CO2 for 72 hours. Viable cells were counted by the XTT assay as describe above.

[7] = system: ordinary kuramochi cells; test: XTT cell viability assay, ordinary kuramochi cells; type: cell-based; details: Homo sapiens
Procedure: Kuramochi cells is a high-grade serous ovarian carcinoma (HGSOC) cell line purchased from Japan Cell Bank. Gene expressions of this cell line was previously confirmed to be mimicking HGSOC (Domcke, S.; Sinha, R.; Levine, D. A.; Sander, C.; Schultz, N. Nat. Commun. 2013, 4, 2126). The cell line was maintained in Dulbecco's Modified Eagle Medium (DMEM; Sigma, St. Louis, Mo., USA) supplemented with 10% fetal bovine serum (FBS), 0.1% non-essential amino acids (NEAA), 2 mM L-glutamine, and 1% penicillin-streptomycin. The cells were incubated at 37° C. with 5% CO2.
as §2

[8] = system: ALDH^+ kuramochi xenograft; test: Western blot of caspases in xenograft tumors; type: in vivo, mice; details: xenograft treated with BP vs control without BP
Procedure: (§3) Accordingly, the effect of BP on the apoptotic signaling pathway was further investigated by quantifying the amount of activated caspase proteins by western blot analysis. Specifically, ALDH^+ kuramochi cells were treated with BP (at 100 μg/ml for 48 hours) and lysed. The cell lysates were loaded onto a gradient 5-20% sodium dodecyl sulfate-polyacrylamide gradient gel. After electrophoretic separation, the proteins were transferred to a polyvinylidene difluoride membrane (Bio-Rad). The membrane was blocked at room temperature in a solution of 3% non-fat dry milk in PBS and 0.1% Tween-20 and then rinsed in PBS/0.1% Tween-20. Blots were incubated with diluted solutions of polyclonal anti-caspase 3 and 8, or anti-cleaved caspase 3, 7, 8, or 9 antibodies (1:200, St. John's Lab, London, UK) and treated with 1:5000 diluted anti-rabbit immunoglobulin G horseradish peroxidase (HRP) for staining (Amersham GE, Taipei, Taiwan). Beta-actin and tubulin proteins (Santa Cruz Biotechnology, Santa Cruz, Calif., USA) were used as internal controls. HRP signals were detected using an electrochemiluminescence kit (Promega, Fitchburg, Wis., USA).
With BP treatment (200 mg/kg), the tumor volumes were smaller than those of control mice treated with the vehicle starting from day 11 to day 26 (p<0.001), as shown in FIG. 7A. […] TUNEL assay was also carried out to evaluate cell viability in the xenograft tumors, using the reagents and procedures as described above but with tumor tissue fixed in formalin and embedded in paraffin and sectioned with a 3 m of thickness. Also, protein levels of cleaved caspase 3, caspase 9, and caspase 7 were examined using western blots as described above to examine apoptotic pathway activation in xenograft tumors.

[9] = system: ALDH^+ kuramochi cells; test: Western blot of cleaved caspases in cultured cells; type: cell-based, human; details: BP 100 μg/ml or 200 μg/ml, 48 hours
Source text: as §3, with “Specifically, ALDH^+ kuramochi cells were treated with BP (at 100 μg/ml for 48 hours) and lysed.” left out

[10] = system: ALDH^+ kuramochi cells; test: Boyden chamber (transwell) cell migration assay; type: cell-based, human; details: 48 hours, vs untreated cells
Procedure: For assessment of cell migration, kuramochi cells (5×10^4 cells) were seeded into the top well of a Boyden chamber (24-well transwell) with a pore size of 8 m (Costar, Corning Inc., Corning, N.Y., USA). The cells were allowed to migrate toward the lower well filled with the same culture medium with BP at a concentration of 100 or 200 μg/ml or without BP treatment. After 48 hours of migration, crystal violet (Sigma) was used to stain the migrated cells. The stained cells were counted using a bright-field microscope. Each experiment was repeated three times.

CCCC=C1OC(=O)c2ccccc21 [BP, n-butylidenephthalide]
tumor volumes vs vehicle control ([1]; BP 200 mg/kg for 5 days, day 11 to day 26, p<0.001): smaller
nuclei of xenograft tumors (H & E staining) vs control ([1]; BP-treated xenograft tumors): denser
TUNEL^+ cells [2]: Significantly more
invasion of ALDH^+ cells ([3]; BP 100 μg/ml, p<0.01): significantly decreased
invasion of ALDH^+ cells ([3]; BP 200 μg/ml, p<0.001): significantly decreased
TUNEL^+ cells in xenograft tumors [4]: significantly more
IC50 [5]: 317 µg/mL (≈ 1690 µM)
cell viability with cisplatin plus BP vs cisplatin without BP ([6]; BP 25 μg/ml with cisplatin 0, 5 or 10 μM, 5 μM p<0.05, 0 and 10 μM p<0.01): significantly lowered
numbers of viable cells with paclitaxel plus BP vs paclitaxel without BP ([6]; BP 25 μg/ml with zero or low concentration of paclitaxel (0, 10 nM), p<0.01): significantly less
IC50 ([7]; 48 h of culture, BP 0-240 μg/ml, read-out: IC50 of BP for the ordinary kuramochi cells (figure legend)): 206 µg/mL (≈ 1100 µM)
IC50 ([7]; 48 h of treatment, XTT, 4PL fit, read-out: IC50 of BP for ordinary kuramochi cells): 206 µg/mL (≈ 1100 µM)
protein level of caspase 7 in xenograft [8]: increased
protein level of caspase 9 in xenograft [8]: increased
protein level of cleaved caspase 3 in xenograft [8]: increased
protein level of cleaved caspase 7 [9]: increased
protein level of cleaved caspase 8 [9]: increased
protein level of cleaved caspase 9 [9]: increased
protein level of cleaved caspase 3 ([9]; p<0.001): increased
migration of ALDH^+ cells ([10]; BP 100 μg/ml, p<0.01): significantly decreased
migration of ALDH^+ cells ([10]; BP 200 μg/ml, p<0.001): significantly decreased
